Structures can show the parent of a compound that is named as a salt.
Biological target: Serum paraoxonase/arylesterase 1 (Homo sapiens, UniProt P27169)
Assay: PON Activity Assay
Description: PON activities were measured in the presence of different drug concentrations. Control activity was assumed to be 100% in the absence of inhibitor. Experiments of all compounds were tested in triplicate at each concentration used and Activity%-[Drug] graphs were drawn for each drug. Determination of Ki values was performed by using three different inhibitor concentrations. In these experiments, paraoxone was used as substrate at five different concentrations (0.15, 0.3, 0.45, 0.6, and 0.75 mM).

Chain of Serum paraoxonase/arylesterase 1 (P27169 whole entry): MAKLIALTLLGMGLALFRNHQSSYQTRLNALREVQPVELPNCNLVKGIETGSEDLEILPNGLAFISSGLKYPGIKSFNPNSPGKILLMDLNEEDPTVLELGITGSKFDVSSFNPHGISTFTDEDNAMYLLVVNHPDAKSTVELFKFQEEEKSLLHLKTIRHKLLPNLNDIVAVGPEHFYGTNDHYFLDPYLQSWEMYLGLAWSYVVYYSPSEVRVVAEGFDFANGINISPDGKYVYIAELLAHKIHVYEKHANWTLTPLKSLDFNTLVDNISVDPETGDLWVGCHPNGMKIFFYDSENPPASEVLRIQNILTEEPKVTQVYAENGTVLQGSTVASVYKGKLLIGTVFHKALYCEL

Row | Ki | SMILES
1 | 56.3 mM | CN[C@H]1[C@@H](O[C@@H]2[C@@H](O[C@H]3[C@H](O)[C@@H](O)[C@H](N=C(N)N)[C@@H](O)[C@@H]3N=C(N)N)O[C@H](C)[C@@]2(O)C=O)O[C@H](CO)[C@@H](O)[C@@H]1O [Streptomycin sulfate]
2 | 18.3 mM | CCC[C@@H]1C[C@@H](C(=O)N[C@@H]([C@H]2O[C@H](SC)[C@H](O)[C@@H](O)[C@H]2O)[C@@H](C)O)N(C)C1 [(2S,4R)-N-((1R,2R)-2-hydroxy-1-((2R,3R,4S,5R,6R)-3,4,5-trihydroxy-6-(methylthio)-tetrahydro-2H-pyran-2-yl)propyl)-1-methyl-4-propylpyrrolidine-2-carboxamide]
3 | 3.73 mM | CCN[C@@H]1C[C@H](N)[C@H](O[C@H]2OC(CN)=CC[C@H]2N)[C@H](O)[C@H]1O[C@H]1OC[C@](C)(O)[C@H](NC)[C@H]1O [Netilmycin sulfate]
4 | 35.8 mM | CCC[C@@H]1C[C@@H](C(=O)N[C@@H]([C@H]2O[C@H](SC)[C@H](OP(=O)(O)O)[C@@H](O)[C@H]2O)[C@H](C)Cl)N(C)C1 [Clindamycin phosphate]

Row | SMILES | Ki
5 | CN(C)[C@@H]1C(=O)C(C(N)=O)=C(O)[C@@]2(O)C(=O)C3=C(O)c4c(O)cccc4[C@@](C)(O)[C@H]3[C@H](O)[C@@H]12 [Oxytetracycline hydrochloride] | 0.2 mM
